Source: patent US20070148765A1, “Preservative-containing virus formulations” (priority 2003, published 2007)
“Also recorded” adds a separate entry of the source.

How the values were obtained:
[1] = test system: S. aureus, P. aeruginosa, E. coli, C. albicans, A. niger; experiment: Antimicrobial effectiveness (AME) testing, overall result; conditions: formulated in A195 buffer
adenovirus = experiment: QPA assay for adenovirus infectivity (stability of adenovirus in formulation); type: cell-based, adenovirus serotype 5 (Ad5); conditions: for Ad5 stability in the presence of preservative: in A195 buffer with the preservative, short-term accelerated stability, infectivity assays
Protocol: QPA Assay for Adenovirus Infectivity—The compatibility of preservatives with adenovirus was assessed by measuring the infectivity adenovirus using QPA assay. The QPA assay is based on the finding that the quantity of replicating adenoviral genomes, upon infection of 293 cells, is proportional to the input quantity of infectious adenovirus 24 hours post-infection (P.I.). The accumulated adenoviral genomes are purified using Qiagen 96-well Blood DNA Extraction Kit 24 hrs P.I. and quantitated using Perkin-Elmer TaqMan PCR technology. A standard curve is constructed by using the TaqMan PCR cycle threshold (CT) reflecting the quantity of accumulated adenoviral genomes due to infection and subsequent replication as a function of the input viral infectivity of standard curve material that is determined by independent TCID50 potency assay. The infectivity of samples is interpolated from the standard curve. Infectivity can be determined within 48-72 hours using this procedure. To determine the loss of adenovirus infectivity in stability samples the infectivity of the stability sample and the corresponding −70° C. control of the same formulation are determined during the same QPA run and on the same PCR plate. The loss of infectivity in the stability samples is expressed as log loss of infectivity compared to the −70° C. control.
Results—Adenovirus was formulated in A195 buffer containing preservatives (i.e., the A500 series of Table 3). The infectivity of adenovirus was measured using a Q-PCR based Potency Assay (QPA) after storage at certain temperatures (2-8, 15, 20, 25, 30, and 37° C.) and compared to the control (corresponding sample stored at −70° C.). The stability of adenovirus was quantitatively presented as “Log Loss of Adenovirus Infectivity”. Variability of the QPA assay is reported to be +/−0.15 logs.

[2] = Solubility of preservative in A195 buffer; type: physicochemical

Row | Compound | AME testing, overall result in words [1] | effects on the stability of adenovirus (log loss of infectivity, FIG. 1) (adenovirus; 0.5% (w/v) chlorobutanol or 0.2% (w/v) benzoic acid in A195 pH 6.8, MRKAd5pol 10^10 VP/ml, 37° C. 1-4 weeks vs −70° C.) | Ad5 stability in the presence of preservative (adenovirus) | solubility in A195 buffer [2]
1 | CC(C)(C)CC(C)(C)c1ccc(OCCOCC[N+](C)(C)Cc2ccccc2)cc1 [benzethonium chloride] | effective antimicrobial preservatives |  |  | 
2 | O=C(O)c1ccccc1 [benzoic acid] | failed AME testing | no significant effects | compatible with adenovirus; also recorded: compatible with Ad5 | 
3 | OCc1ccccc1 [benzyl alcohol] | effective antimicrobial preservatives |  | very poor stability | 
4 | Cc1cccc(O)c1 [m-cresol] | effective antimicrobial preservatives |  |  | poor solubility
5 | Oc1ccccc1 [phenol] | effective antimicrobial preservatives |  | very unstable | 
